Results from patent US11161850B2, “Fused pyrazine derivatives as A2A / A2B inhibitors” (Incyte Corporation, priority 2018, dated 2021).
Where two headings read alike, the source gives them in different places.

Columns and labels:
Adenosine A2A = Adenosine A2A (Homo sapiens (Human), UniProt P29274); test: A2A Tag-Lite HTRF assay; type: binding
Excerpt: Example C. A2A Tag-Lite® HTRF Assay

[1] = target: human adenosine A2B receptor (Homo sapiens (Human), UniProt P29275); test: Adenosine A2B Receptor Cyclic AMP GS Assay; type: cell-based; conditions: HEK-293 cells expressing human A2B, agonist NECA 12 nM
Method: Example B. Adenosine A2B Receptor Cyclic AMP GS Assay
Stably transfected HEK-293 cells expressing the human adenosine A2B receptor (Perkin Elmer) were maintained in MEM culture medium with 10% FBS and 100 μg/mL Geneticin (Life Technologies). 18 to 24 hours prior to assay, geneticin was removed from culture. The cisbio cAMP-GS Dynamic kit utilizing the FRET (Fluorescence Resonance Energy Transfer) technology was used to measure cAMP accumulation in the cells. Compounds of the present disclosure at an appropriate concentration were mixed with 10000 cells/well in white 96 well half area plates (Perkin Elmer) for 30 min at room temperature gently shaking. Agonist, NECA (R&D Technologies) at 12 nM was added to each well for 60 min at room temperature gently shaking. Detection reagents, d2-labeled cAMP (acceptor) and anti-cAMP cryptate (donor) were added to each well for 60 min at rt gently shaking. Plates were read on Pherastar (BMG Labtech), fluorescence ratio 665/620 was calculated and EC50 determination was performed by fitting the curve of percent of control versus the log of the compound concentration using GraphPad Prism.

[2] = Tag-Lite Adenosine A2A labeled cells, fluorescent ligand 12.5 nM, read-out: A2A_Ki
[3] = read-out: A2A_Ki, Tag-Lite Adenosine A2A labeled cells, fluorescent ligand 12.5 nM

Sequence of human adenosine A2B receptor (P29275 whole entry): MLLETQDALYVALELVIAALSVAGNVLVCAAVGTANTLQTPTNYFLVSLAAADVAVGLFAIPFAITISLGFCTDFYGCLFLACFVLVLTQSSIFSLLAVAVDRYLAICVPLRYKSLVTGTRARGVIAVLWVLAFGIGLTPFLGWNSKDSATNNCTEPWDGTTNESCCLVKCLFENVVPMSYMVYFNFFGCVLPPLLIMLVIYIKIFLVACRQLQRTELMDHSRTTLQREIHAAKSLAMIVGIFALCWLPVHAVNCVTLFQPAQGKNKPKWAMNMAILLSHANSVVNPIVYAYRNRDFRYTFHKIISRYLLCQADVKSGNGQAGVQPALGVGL
Sequence of Adenosine A2A (P29274 whole entry): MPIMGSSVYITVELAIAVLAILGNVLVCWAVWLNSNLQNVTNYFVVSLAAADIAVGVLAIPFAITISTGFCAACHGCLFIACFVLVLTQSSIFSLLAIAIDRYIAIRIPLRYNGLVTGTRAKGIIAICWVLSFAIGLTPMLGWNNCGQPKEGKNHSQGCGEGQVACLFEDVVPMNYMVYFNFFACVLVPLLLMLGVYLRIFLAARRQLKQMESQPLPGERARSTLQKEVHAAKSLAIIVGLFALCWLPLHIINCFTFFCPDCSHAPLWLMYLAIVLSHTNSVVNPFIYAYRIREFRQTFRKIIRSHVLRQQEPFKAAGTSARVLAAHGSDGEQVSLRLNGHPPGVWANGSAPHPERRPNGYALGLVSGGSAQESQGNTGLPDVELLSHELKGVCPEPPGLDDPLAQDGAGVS

Q: `N#Cc1cccc(-c2nc(N)c3cc(C(O)c4ccccc4F)nn3c2-c2ccncn2)c1` (racemic) [Example 23, 3-(4-Amino-2-((2-fluorophenyl)(hydroxy)methyl)-7-(pyrimidin-4-yl)pyrazolo[1,5-a]pyrazin-6-yl)benzonitrile] was tested. Which Ki (Adenosine A2A; [2]) did it give?
A: The Ki was < 10 nM.

Q: What about the EC50 ([1]; A2B_cAMP_EC50 (nM)) of the same molecule?
A: The EC50 was < 10 nM.

Q: How did the Ki (Adenosine A2A; [2]) turn out when `Cc1ncoc1-c1c(-c2cccc(C#N)c2)nc(N)c2nc(C(O)c3ccccn3)nn12` (racemic) [Example 40, 3-(8-Amino-2-(hydroxy(pyridin-2-yl)methyl)-5-(4-methyloxazol-5-yl)-[1,2,4]triazolo[1,5-a]pyrazin-6-yl)benzonitrile] was run?
A: The Ki was < 10 nM.

Q: What about the EC50 ([1]; A2B_cAMP_EC50 (nM)) of the same molecule?
A: The EC50 was < 10 nM.

Q: Which Ki (Adenosine A2A; [2]) does the source give for `N#Cc1cccc(-c2nc(N)c3nc(C(O)c4c(F)cccc4F)nn3c2-c2ccc3nncn3c2)c1` (racemic) [Example 104, 3-(5-([1,2,4]triazolo[4,3-a]pyridin-6-yl)-8-amino-2-((2,6-difluorophenyl)(hydroxy)methyl)-[1,2,4]triazolo[1,5-a]pyrazin-6-yl)benzonitrile] here?
A: Its Ki is < 10 nM.

Q: And the EC50 ([1]; A2B_cAMP_EC50 (nM))?
A: The EC50 was 10 to 100 nM.

Q: How did the Ki (Adenosine A2A; [2]) turn out when `N#Cc1cccc(-c2cn3nc(C(O)c4c(F)cccc4CN4CCN5C(=O)CCC5C4)nc3c(N)n2)c1F` (racemic) [Example 113, 3-(8-amino-2-((2-fluoro-6-((6-oxohexahydropyrrolo[1,2-a]pyrazin-2(1H)-yl)methyl)phenyl)(hydroxy)methyl)-[1,2,4]triazolo[1,5-a]pyrazin-6-yl)-2-fluorobenzonitrile] was run?
A: Its Ki is < 10 nM.

Q: What about the EC50 ([1]; A2B_cAMP_EC50 (nM)) of the same molecule?
A: The EC50 was 10 to 100 nM.

Q: How did the Ki (Adenosine A2A) turn out when `N#Cc1cccc(-c2nc(N)c3nc(C(O)c4c(F)cccc4F)nn3c2-c2ccncn2)c1` (single isomer, unassigned) [Example 49, 3-(8-Amino-2-((2,6-difluorophenyl)(hydroxy)methyl)-5-(pyrimidin-4-yl)-[1,2,4]triazolo[1,5-a]pyrazin-6-yl)benzonitrile] was run?
A: The Ki was < 10 nM.

Q: What about the EC50 ([1]; A2B_cAMP_EC50 (nM)) of the same molecule?
A: Its EC50 is < 10 nM.

Q: For `N#Cc1cccc(-c2nc(N)c3nc(C(O)c4c(F)cccc4F)nn3c2-c2ccncn2)c1` (single isomer, unassigned) [Example 50, 3-(8-Amino-2-((2,6-difluorophenyl)(hydroxy)methyl)-5-(pyrimidin-4-yl)-[1,2,4]triazolo[1,5-a]pyrazin-6-yl)benzonitrile], which Ki (Adenosine A2A; [3]) is on record?
A: Its Ki is < 10 nM.

Q: And the EC50 ([1]; read-out: A2B_cAMP_EC50)?
A: Its EC50 is < 10 nM.

Q: What does the source list for `N#Cc1cccc(-c2nc(N)c3nc(C(O)c4cc(F)ccc4F)nn3c2-c2ccncn2)c1` (single isomer, unassigned) [Example 51, 3-(8-Amino-2-((2,5-difluorophenyl)(hydroxy)methyl)-5-(pyrimidin-4-yl)-[1,2,4]triazolo[1,5-a]pyrazin-6-yl)benzonitrile]?
A: Ki (Adenosine A2A): < 10 nM; EC50 ([1]; A2B_cAMP_EC50 (nM)): < 10 nM

Q: With `N#Cc1cccc(-c2nc(N)c3nc(C(O)c4cc(F)ccc4F)nn3c2-c2ccncn2)c1` (single isomer, unassigned) [Example 52, 3-(8-Amino-2-((2,5-difluorophenyl)(hydroxy)methyl)-5-(pyrimidin-4-yl)-[1,2,4]triazolo[1,5-a]pyrazin-6-yl)benzonitrile] as the molecule, how does the Ki (Adenosine A2A; [3]) read?
A: The Ki was < 10 nM.

Q: What about the EC50 ([1]; read-out: A2B_cAMP_EC50) of the same molecule?
A: Its EC50 is < 10 nM.

Q: `N#Cc1cccc(-c2nc(N)c3nc(C(O)c4cccc(F)c4F)nn3c2-c2ccncn2)c1` (single isomer, unassigned) [Example 53, 3-(8-Amino-2-((2,3-difluorophenyl)(hydroxy)methyl)-5-(pyrimidin-4-yl)-[1,2,4]triazolo[1,5-a]pyrazin-6-yl)benzonitrile] was tested. Which Ki (Adenosine A2A) did it give?
A: The Ki was < 10 nM.

Q: And the EC50 ([1]; A2B_cAMP_EC50 (nM))?
A: Its EC50 is < 10 nM.

Q: With `N#Cc1cccc(-c2nc(N)c3nc(C(O)c4cccc(F)c4F)nn3c2-c2ccncn2)c1` (single isomer, unassigned) [Example 54, 3-(8-Amino-2-((2,3-difluorophenyl)(hydroxy)methyl)-5-(pyrimidin-4-yl)-[1,2,4]triazolo[1,5-a]pyrazin-6-yl)benzonitrile] as the molecule, how does the Ki (Adenosine A2A; [3]) read?
A: Its Ki is < 10 nM.

Q: And the EC50 ([1]; read-out: A2B_cAMP_EC50)?
A: Its EC50 is < 10 nM.

Q: `N#Cc1cccc(-c2nc(N)c3nc(C(O)c4ccccc4F)nn3c2-c2ccncn2)c1` (single isomer, unassigned) [Example 55, 3-(8-Amino-2-((2-fluorophenyl)(hydroxy)methyl)-5-(pyrimidin-4-yl)-[1,2,4]triazolo[1,5-a]pyrazin-6-yl)benzonitrile] was tested. Which Ki (Adenosine A2A) did it give?
A: The Ki was < 10 nM.

Q: And the EC50 ([1]; A2B_cAMP_EC50 (nM))?
A: The EC50 was < 10 nM.

Q: Which results are given for `N#Cc1cccc(-c2nc(N)c3nc(C(O)c4ccccc4F)nn3c2-c2ccncn2)c1` (single isomer, unassigned) [Example 56, 3-(8-Amino-2-((2-fluorophenyl)(hydroxy)methyl)-5-(pyrimidin-4-yl)-[1,2,4]triazolo[1,5-a]pyrazin-6-yl)benzonitrile]?
A: Ki (Adenosine A2A; [3]): < 10 nM; EC50 ([1]; read-out: A2B_cAMP_EC50): < 10 nM

Q: With `N#Cc1cccc(-c2nc(N)c3nc(C(O)c4ccccc4Cl)nn3c2-c2ccncn2)c1` (single isomer, unassigned) [Example 57, 3-(8-Amino-2-((2-chlorophenyl)(hydroxy)methyl)-5-(pyrimidin-4-yl)-[1,2,4]triazolo[1,5-a]pyrazin-6-yl)benzonitrile] as the molecule, how does the Ki (Adenosine A2A) read?
A: Its Ki is < 10 nM.

Q: And the EC50 ([1]; A2B_cAMP_EC50 (nM))?
A: The EC50 was < 10 nM.

Q: How did the Ki (Adenosine A2A; [3]) turn out when `N#Cc1cccc(-c2nc(N)c3nc(C(O)c4ccccc4Cl)nn3c2-c2ccncn2)c1` (single isomer, unassigned) [Example 58, 3-(8-Amino-2-((2-chlorophenyl)(hydroxy)methyl)-5-(pyrimidin-4-yl)-[1,2,4]triazolo[1,5-a]pyrazin-6-yl)benzonitrile] was run?
A: The Ki was < 10 nM.

Q: What about the EC50 ([1]; read-out: A2B_cAMP_EC50) of the same molecule?
A: The EC50 was < 10 nM.

Q: With `CCn1nccc1-c1c(-c2cccc(C#N)c2)nc(N)c2nc(C(O)c3c(F)cccc3F)nn12` (single isomer, unassigned) [Example 92, 3-(8-amino-2-((2,6-difluorophenyl)(hydroxy)methyl)-5-(1-ethyl-1H-pyrazol-5-yl)-[1,2,4]triazolo[1,5-a]pyrazin-6-yl)benzonitrile] as the molecule, how does the Ki (Adenosine A2A) read?
A: The Ki was < 10 nM.

Q: What about the EC50 ([1]; A2B_cAMP_EC50 (nM)) of the same molecule?
A: Its EC50 is < 10 nM.

Q: With `CCn1nccc1-c1c(-c2cccc(C#N)c2)nc(N)c2nc(C(O)c3c(F)cccc3F)nn12` (single isomer, unassigned) [Example 93, 3-(8-amino-2-((2,6-difluorophenyl)(hydroxy)methyl)-5-(1-ethyl-1H-pyrazol-5-yl)-[1,2,4]triazolo[1,5-a]pyrazin-6-yl)benzonitrile] as the molecule, how does the Ki (Adenosine A2A; [3]) read?
A: The Ki was < 10 nM.

Q: And the EC50 ([1]; read-out: A2B_cAMP_EC50)?
A: The EC50 was < 10 nM.

Q: Which results are given for `Cc1cc(-c2c(-c3cccc(C#N)c3)nc(N)c3nc(C(O)c4c(F)cccc4F)nn23)cc(C)n1` (single isomer, unassigned) [Example 94, 3-(8-amino-2-((2,6-difluorophenyl)(hydroxy)methyl)-5-(2,6-dimethylpyridin-4-yl)-[1,2,4]triazolo[1,5-a]pyrazin-6-yl)benzonitrile]?
A: Ki (Adenosine A2A): < 10 nM; EC50 ([1]; A2B_cAMP_EC50 (nM)): 10 to 100 nM

Q: How did the Ki (Adenosine A2A; [3]) turn out when `Cc1cc(-c2c(-c3cccc(C#N)c3)nc(N)c3nc(C(O)c4c(F)cccc4F)nn23)cc(C)n1` (single isomer, unassigned) [Example 95, 3-(8-amino-2-((2,6-difluorophenyl)(hydroxy)methyl)-5-(2,6-dimethylpyridin-4-yl)-[1,2,4]triazolo[1,5-a]pyrazin-6-yl)benzonitrile] was run?
A: Its Ki is < 10 nM.

Q: And the EC50 ([1]; read-out: A2B_cAMP_EC50)?
A: The EC50 was 10 to 100 nM.

Q: What does the source list for `N#Cc1cccc(-c2nc(N)c3nc(C(O)c4c(F)cccc4OC(F)F)nn3c2-c2ccncn2)c1` (single isomer, unassigned) [Example 97, 3-(8-amino-2-((2-(difluoromethoxy)-6-fluorophenyl)(hydroxy)methyl)-5-(pyrimidin-4-yl)-[1,2,4]triazolo[1,5-a]pyrazin-6-yl)benzonitrile]?
A: Ki (Adenosine A2A): < 10 nM; EC50 ([1]; A2B_cAMP_EC50 (nM)): < 10 nM
